{"source": "paper PMC8333425", "about": "“Discovery of a dual Ras and ARF6 inhibitor from a GPCR endocytosis screen” (Nature Communications, 2021)", "test_in_all_cases": "KINOMEscan kinase binding assay", "key": {"[1]": {"molecular_target": "T1, 384 kinases from the human genome (Homo sapiens, UniProt Q96BR1)", "T1 construct": "purchased Eurofin/DiscoverX", "T1 sequence (Q96BR1 whole entry)": "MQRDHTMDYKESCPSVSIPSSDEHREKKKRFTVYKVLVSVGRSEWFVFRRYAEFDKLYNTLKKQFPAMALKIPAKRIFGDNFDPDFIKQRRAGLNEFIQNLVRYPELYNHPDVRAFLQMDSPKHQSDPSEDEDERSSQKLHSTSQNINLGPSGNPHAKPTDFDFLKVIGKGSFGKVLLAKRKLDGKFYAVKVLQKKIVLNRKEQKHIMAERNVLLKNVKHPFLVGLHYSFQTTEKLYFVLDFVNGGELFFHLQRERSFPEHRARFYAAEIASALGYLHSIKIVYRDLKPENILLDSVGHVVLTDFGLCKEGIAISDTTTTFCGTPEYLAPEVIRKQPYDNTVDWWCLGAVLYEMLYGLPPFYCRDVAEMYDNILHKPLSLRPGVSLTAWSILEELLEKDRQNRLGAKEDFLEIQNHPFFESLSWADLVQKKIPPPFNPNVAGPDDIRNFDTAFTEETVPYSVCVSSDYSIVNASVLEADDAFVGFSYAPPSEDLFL", "conditions": "kinase SGK3 (Entrez SGK3)", "how_it_was_run": "(§1)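 A panel of 384 human kinases was profiled by KINOMEscan binding in the presence of 10 µM compound. Kinase–ligand binding was given as percent of DMSO control, averaged from duplicates in a single run, with an S(10) selectivity score.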"}, "[2]": {"molecular_target": "T2, 384 kinases from the human genome (Homo sapiens, UniProt O75460)", "T2 construct": "purchased Eurofin/DiscoverX", "conditions": "kinase ERN1 (Entrez ERN1)", "how_it_was_run": "as §1"}, "[3]": {"molecular_target": "T3, 384 kinases from the human genome (Homo sapiens, UniProt Q9BUB5)", "T3 construct": "purchased Eurofin/DiscoverX", "T3 sequence (Q9BUB5 whole entry)": "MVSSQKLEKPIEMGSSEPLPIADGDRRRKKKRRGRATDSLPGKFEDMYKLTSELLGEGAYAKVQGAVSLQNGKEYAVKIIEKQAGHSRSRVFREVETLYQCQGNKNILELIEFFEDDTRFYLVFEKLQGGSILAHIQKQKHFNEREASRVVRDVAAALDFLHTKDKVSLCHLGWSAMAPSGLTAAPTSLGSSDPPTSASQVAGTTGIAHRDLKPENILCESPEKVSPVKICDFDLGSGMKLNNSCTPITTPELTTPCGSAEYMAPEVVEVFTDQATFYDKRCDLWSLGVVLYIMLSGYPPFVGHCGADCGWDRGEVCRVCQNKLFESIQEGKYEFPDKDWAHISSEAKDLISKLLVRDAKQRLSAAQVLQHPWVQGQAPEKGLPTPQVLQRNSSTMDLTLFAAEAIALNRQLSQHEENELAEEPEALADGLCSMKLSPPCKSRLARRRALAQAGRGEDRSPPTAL", "conditions": "kinase MKNK1 (Entrez MKNK1)", "how_it_was_run": "as §1"}, "[4]": {"molecular_target": "T4, 384 kinases from the human genome (Homo sapiens, UniProt P57058)", "T4 construct": "purchased Eurofin/DiscoverX", "conditions": "kinase HUNK (Entrez HUNK)", "how_it_was_run": "as §1"}, "[5]": {"molecular_target": "T5, 384 kinases from the human genome (Homo sapiens, UniProt P57059)", "T5 construct": "purchased Eurofin/DiscoverX", "conditions": "kinase SIK (Entrez SIK1)", "how_it_was_run": "as §1"}, "[6]": {"molecular_target": "T6, 384 kinases from the human genome (Homo sapiens, UniProt Q86YV6)", "T6 construct": "purchased Eurofin/DiscoverX", "conditions": "kinase MYLK4 (Entrez MYLK4)", "how_it_was_run": "as §1"}, "[7]": {"molecular_target": "T7, 384 kinases from the human genome (Homo sapiens, UniProt P42681)", "T7 construct": "purchased Eurofin/DiscoverX", "conditions": "kinase TXK (Entrez TXK)", "how_it_was_run": "as §1"}, "[8]": {"molecular_target": "T8, 384 kinases from the human genome (Homo sapiens, UniProt P42338)", "T8 construct": "purchased Eurofin/DiscoverX", "conditions": "kinase PIK3CB (Entrez PIK3CB)", "how_it_was_run": "as §1"}, "[9]": {"molecular_target": "T9, 384 kinases from the human genome (Homo sapiens, UniProt Q56UN5)", "T9 construct": "purchased Eurofin/DiscoverX", "conditions": "kinase YSK4 (Entrez MAP3K19)", "how_it_was_run": "as §1"}, "[10]": {"molecular_target": "T10, 384 kinases from the human genome (Homo sapiens, UniProt O00750)", "T10 construct": "purchased Eurofin/DiscoverX", "conditions": "kinase PIK3C2B (Entrez PIK3C2B)", "how_it_was_run": "as §1"}, "[11]": {"molecular_target": "T11, 384 kinases from the human genome (Homo sapiens, UniProt P49336)", "T11 construct": "purchased Eurofin/DiscoverX", "T11 sequence (P49336 whole entry)": "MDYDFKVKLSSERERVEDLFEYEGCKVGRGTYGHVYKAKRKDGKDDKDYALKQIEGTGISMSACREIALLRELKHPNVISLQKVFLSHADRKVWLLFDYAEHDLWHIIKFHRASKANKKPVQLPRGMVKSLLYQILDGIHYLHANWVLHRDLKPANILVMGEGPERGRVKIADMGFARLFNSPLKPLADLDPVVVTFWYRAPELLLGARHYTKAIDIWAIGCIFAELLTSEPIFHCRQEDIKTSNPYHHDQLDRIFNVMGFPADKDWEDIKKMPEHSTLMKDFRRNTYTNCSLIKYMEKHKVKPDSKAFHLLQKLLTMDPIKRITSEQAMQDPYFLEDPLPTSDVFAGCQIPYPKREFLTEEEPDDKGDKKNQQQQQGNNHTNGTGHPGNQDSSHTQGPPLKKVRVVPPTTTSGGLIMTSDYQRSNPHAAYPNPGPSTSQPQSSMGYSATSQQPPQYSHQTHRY", "conditions": "kinase CDK8 (Entrez CDK8)", "how_it_was_run": "as §1"}, "[12]": {"molecular_target": "T12, 384 kinases from the human genome (Homo sapiens, UniProt Q15835)", "T12 construct": "purchased Eurofin/DiscoverX", "conditions": "kinase GRK1 (Entrez GRK1)", "how_it_was_run": "as §1"}, "[13]": {"molecular_target": "T13, 384 kinases from the human genome (Homo sapiens, UniProt O75116)", "T13 construct": "purchased Eurofin/DiscoverX", "conditions": "kinase ROCK2 (Entrez ROCK2)", "how_it_was_run": "as §1"}, "[14]": {"molecular_target": "T14, 384 kinases from the human genome (Homo sapiens, UniProt O43353)", "T14 construct": "purchased Eurofin/DiscoverX", "conditions": "kinase RIPK2 (Entrez RIPK2)", "how_it_was_run": "as §1"}, "[15]": {"molecular_target": "T15, 384 kinases from the human genome (Homo sapiens, UniProt P12931)", "T15 construct": "purchased Eurofin/DiscoverX", "T15 sequence (P12931 whole entry)": "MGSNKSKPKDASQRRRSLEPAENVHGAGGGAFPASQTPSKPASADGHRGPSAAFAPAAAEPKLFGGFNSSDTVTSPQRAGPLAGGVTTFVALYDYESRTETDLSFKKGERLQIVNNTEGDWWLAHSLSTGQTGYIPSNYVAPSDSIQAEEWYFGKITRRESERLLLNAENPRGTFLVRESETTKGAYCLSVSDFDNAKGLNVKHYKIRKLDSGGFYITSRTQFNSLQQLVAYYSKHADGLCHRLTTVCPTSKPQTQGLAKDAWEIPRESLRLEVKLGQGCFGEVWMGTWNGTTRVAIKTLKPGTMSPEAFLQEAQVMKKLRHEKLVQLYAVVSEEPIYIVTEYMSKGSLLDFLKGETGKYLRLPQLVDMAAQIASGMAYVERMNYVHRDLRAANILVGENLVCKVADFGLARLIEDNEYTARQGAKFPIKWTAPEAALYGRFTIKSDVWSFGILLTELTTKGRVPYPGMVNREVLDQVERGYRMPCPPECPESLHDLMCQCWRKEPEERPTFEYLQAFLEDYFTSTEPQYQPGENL", "how_it_was_run": "as §1"}, "[16]": {"molecular_target": "T16, 384 kinases from the human genome (Homo sapiens, UniProt Q9UKE5)", "T16 construct": "purchased Eurofin/DiscoverX", "conditions": "kinase TNIK (Entrez TNIK)", "how_it_was_run": "as §1"}, "[17]": {"molecular_target": "T17, 384 kinases from the human genome (Homo sapiens, UniProt Q00532)", "T17 construct": "purchased Eurofin/DiscoverX", "conditions": "kinase CDKL1 (Entrez CDKL1)", "how_it_was_run": "as §1"}, "[18]": {"molecular_target": "T18, 384 kinases from the human genome (Homo sapiens, UniProt Q8TDC3)", "T18 construct": "purchased Eurofin/DiscoverX", "conditions": "kinase BRSK1 (Entrez BRSK1)", "how_it_was_run": "as §1"}, "[19]": {"molecular_target": "T19, 384 kinases from the human genome (Homo sapiens, UniProt P07332)", "T19 construct": "purchased Eurofin/DiscoverX", "conditions": "kinase FES (Entrez FES)", "how_it_was_run": "as §1"}, "[20]": {"molecular_target": "T20, 384 kinases from the human genome (Homo sapiens, UniProt P06213)", "T20 construct": "purchased Eurofin/DiscoverX", "conditions": "kinase INSR (Entrez INSR)", "how_it_was_run": "as §1"}, "[21]": {"molecular_target": "T21, 384 kinases from the human genome (Homo sapiens, UniProt Q9Y6E0)", "T21 construct": "purchased Eurofin/DiscoverX", "T21 sequence (Q9Y6E0 whole entry)": "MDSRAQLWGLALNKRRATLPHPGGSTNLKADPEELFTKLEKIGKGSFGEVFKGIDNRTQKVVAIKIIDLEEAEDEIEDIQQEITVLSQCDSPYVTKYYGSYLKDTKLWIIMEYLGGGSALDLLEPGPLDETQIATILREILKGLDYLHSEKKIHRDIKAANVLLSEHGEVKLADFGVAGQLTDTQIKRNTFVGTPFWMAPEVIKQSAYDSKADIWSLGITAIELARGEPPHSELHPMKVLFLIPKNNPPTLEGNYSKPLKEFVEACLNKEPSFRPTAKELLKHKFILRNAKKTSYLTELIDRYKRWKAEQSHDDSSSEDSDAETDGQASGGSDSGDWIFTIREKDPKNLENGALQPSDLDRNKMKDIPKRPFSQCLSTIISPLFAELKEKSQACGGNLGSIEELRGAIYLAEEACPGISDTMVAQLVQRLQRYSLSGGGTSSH", "conditions": "kinase MST3 (Entrez STK24)", "how_it_was_run": "as §1"}, "[22]": {"molecular_target": "T22, 384 kinases from the human genome (Homo sapiens, UniProt Q96Q40)", "T22 construct": "purchased Eurofin/DiscoverX", "conditions": "kinase PFTAIRE2 (Entrez CDK15)", "how_it_was_run": "as §1"}, "[23]": {"molecular_target": "T23, 384 kinases from the human genome (Homo sapiens, UniProt O75385)", "T23 construct": "purchased Eurofin/DiscoverX", "T23 sequence (O75385 whole entry)": "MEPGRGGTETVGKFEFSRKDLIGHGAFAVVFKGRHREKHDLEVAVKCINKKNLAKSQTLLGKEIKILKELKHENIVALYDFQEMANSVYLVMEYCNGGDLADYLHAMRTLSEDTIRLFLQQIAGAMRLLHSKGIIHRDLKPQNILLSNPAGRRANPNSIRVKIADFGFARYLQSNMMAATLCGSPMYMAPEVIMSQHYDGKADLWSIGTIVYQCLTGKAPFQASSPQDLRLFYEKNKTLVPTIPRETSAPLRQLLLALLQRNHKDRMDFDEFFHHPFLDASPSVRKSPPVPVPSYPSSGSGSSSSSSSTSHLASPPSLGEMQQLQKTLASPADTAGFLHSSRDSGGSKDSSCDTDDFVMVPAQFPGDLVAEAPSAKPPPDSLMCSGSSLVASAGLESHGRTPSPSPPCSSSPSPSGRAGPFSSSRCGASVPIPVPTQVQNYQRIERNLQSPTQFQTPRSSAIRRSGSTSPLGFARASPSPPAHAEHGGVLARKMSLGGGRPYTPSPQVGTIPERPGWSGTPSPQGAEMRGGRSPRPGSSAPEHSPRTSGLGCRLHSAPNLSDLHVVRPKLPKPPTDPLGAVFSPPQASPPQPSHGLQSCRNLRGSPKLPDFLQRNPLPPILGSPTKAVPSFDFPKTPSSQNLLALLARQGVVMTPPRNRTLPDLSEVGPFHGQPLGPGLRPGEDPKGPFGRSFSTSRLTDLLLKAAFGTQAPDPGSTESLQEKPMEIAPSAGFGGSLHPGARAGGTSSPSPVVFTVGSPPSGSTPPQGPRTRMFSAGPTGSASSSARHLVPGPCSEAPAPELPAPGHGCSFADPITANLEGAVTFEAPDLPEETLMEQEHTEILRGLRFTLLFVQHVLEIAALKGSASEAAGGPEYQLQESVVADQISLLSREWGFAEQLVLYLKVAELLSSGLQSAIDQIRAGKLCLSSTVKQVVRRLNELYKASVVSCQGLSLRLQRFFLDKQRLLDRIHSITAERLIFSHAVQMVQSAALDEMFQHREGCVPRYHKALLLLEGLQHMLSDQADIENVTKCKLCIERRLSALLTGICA", "conditions": "kinase ULK1 (Entrez ULK1)", "how_it_was_run": "as §1"}, "[24]": {"molecular_target": "T24, 384 kinases from the human genome (Homo sapiens, UniProt Q5VT25)", "T24 construct": "purchased Eurofin/DiscoverX", "conditions": "kinase MRCKA (Entrez CDC42BPA)", "how_it_was_run": "as §1"}, "[25]": {"molecular_target": "T25, 384 kinases from the human genome (Homo sapiens, UniProt Q86UX6)", "T25 construct": "purchased Eurofin/DiscoverX", "conditions": "kinase YANK3 (Entrez STK32C)", "how_it_was_run": "as §1"}, "[26]": {"molecular_target": "T26, 384 kinases from the human genome (Homo sapiens, UniProt Q9UM73)", "T26 construct": "purchased Eurofin/DiscoverX", "T26 sequence (Q9UM73 19-1620)": "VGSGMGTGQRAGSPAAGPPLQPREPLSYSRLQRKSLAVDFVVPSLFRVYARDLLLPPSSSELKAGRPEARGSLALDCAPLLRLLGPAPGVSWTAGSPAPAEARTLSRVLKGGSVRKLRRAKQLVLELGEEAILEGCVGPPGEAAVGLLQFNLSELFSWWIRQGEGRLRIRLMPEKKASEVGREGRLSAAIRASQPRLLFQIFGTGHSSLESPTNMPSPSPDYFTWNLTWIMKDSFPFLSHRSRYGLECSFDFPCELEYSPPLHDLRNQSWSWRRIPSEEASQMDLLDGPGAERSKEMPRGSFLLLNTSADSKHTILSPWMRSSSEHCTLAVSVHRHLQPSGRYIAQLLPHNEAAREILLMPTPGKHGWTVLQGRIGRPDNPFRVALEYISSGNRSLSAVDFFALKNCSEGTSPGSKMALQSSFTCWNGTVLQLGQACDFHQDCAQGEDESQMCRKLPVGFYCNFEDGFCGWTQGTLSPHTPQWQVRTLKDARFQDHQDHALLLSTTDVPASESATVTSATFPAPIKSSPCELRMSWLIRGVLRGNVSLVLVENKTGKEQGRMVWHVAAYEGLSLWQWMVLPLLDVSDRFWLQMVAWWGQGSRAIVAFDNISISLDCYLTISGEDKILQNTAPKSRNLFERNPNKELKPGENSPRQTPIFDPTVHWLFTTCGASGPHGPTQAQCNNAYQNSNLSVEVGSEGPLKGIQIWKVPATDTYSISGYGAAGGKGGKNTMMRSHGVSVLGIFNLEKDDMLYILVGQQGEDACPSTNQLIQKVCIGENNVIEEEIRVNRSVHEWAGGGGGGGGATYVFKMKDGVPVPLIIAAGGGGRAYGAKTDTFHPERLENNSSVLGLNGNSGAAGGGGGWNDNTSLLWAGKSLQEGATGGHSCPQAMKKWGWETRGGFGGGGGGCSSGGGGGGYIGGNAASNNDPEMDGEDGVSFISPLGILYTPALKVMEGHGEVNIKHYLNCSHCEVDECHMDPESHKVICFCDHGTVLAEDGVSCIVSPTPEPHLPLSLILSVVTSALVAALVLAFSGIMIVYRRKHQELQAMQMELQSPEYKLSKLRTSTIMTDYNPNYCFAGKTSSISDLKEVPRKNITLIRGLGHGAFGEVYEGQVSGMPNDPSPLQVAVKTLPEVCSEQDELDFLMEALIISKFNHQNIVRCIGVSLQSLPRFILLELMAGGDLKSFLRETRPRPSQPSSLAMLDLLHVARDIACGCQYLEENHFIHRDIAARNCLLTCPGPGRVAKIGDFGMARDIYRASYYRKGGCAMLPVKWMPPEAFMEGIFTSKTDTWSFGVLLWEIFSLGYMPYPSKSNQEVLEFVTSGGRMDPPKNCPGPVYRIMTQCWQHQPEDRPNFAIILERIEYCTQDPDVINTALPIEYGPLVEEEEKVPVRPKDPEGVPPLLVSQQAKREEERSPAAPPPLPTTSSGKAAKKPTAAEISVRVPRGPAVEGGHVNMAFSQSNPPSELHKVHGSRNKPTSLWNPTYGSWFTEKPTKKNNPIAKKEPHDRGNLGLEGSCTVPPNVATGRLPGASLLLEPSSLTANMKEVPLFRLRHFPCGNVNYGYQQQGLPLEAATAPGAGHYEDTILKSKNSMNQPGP", "conditions": "kinase ALK (Entrez ALK)", "how_it_was_run": "as §1"}}, "data": [{"smiles": "CC(C)C(=O)N1CCN(c2ccc(NC(=O)c3cc4ccccc4o3)cc2Cl)CC1", "note": "[Compound 21]", "values": [{"measurement": "Percent Control", "setting": "[1]", "value": 91, "unit": "%"}, {"measurement": "Percent Control", "setting": "[2]", "value": 55, "unit": "%"}, {"measurement": "Percent Control", "setting": "[3]", "value": 88, "unit": "%"}, {"measurement": "Percent Control", "setting": "[4]", "value": 69, "unit": "%"}, {"measurement": "Percent Control", "setting": "[5]", "value": 94, "unit": "%"}, {"measurement": "Percent Control", "setting": "[6]", "value": 99, "unit": "%"}, {"measurement": "Percent Control", "setting": "[7]", "value": 76, "unit": "%"}, {"measurement": "Percent Control", "setting": "[8]", "value": 99, "unit": "%"}, {"measurement": "Percent Control", "setting": "[9]", "value": 98, "unit": "%"}, {"measurement": "Percent Control", "setting": "[10]", "value": 98, "unit": "%"}, {"measurement": "Percent Control", "setting": "[11]", "value": 100, "unit": "%"}, {"measurement": "Percent Control", "setting": "[12]", "value": 94, "unit": "%"}, {"measurement": "Percent Control", "setting": "[13]", "value": 80, "unit": "%"}, {"measurement": "Percent Control", "setting": "[14]", "value": 81, "unit": "%"}, {"measurement": "binding to Src", "setting": "[15]; 10 µM of 21", "value": "failed to bind"}, {"measurement": "Percent Control", "setting": "[15]; kinase SRC (Entrez SRC)", "value": 100, "unit": "%"}, {"measurement": "Percent Control", "setting": "[16]", "value": 57, "unit": "%"}, {"measurement": "Percent Control", "setting": "[17]", "value": 100, "unit": "%"}, {"measurement": "Percent Control", "setting": "[18]", "value": 99, "unit": "%"}, {"measurement": "Percent Control", "setting": "[19]", "value": 73, "unit": "%"}, {"measurement": "Percent Control", "setting": "[20]", "value": 82, "unit": "%"}, {"measurement": "Percent Control", "setting": "[21]", "value": 84, "unit": "%"}, {"measurement": "Percent Control", "setting": "[22]", "value": 100, "unit": "%"}, {"measurement": "Percent Control", "setting": "[23]", "value": 97, "unit": "%"}, {"measurement": "Percent Control", "setting": "[24]", "value": 68, "unit": "%"}, {"measurement": "Percent Control", "setting": "[25]", "value": 100, "unit": "%"}, {"measurement": "Percent Control", "setting": "[26]", "value": 89, "unit": "%"}]}]}
